Assay results published in patent US8399501B2, “Crystalline alkoxyimidazol-1-ylmethyl biphenyl carboxylic acid and methods for preparing thereof” (Theravance, Inc., priority 2010, dated 2013).

Test: Solid state stability assessment (storage at 40° C. with desiccant, impurities by HPLC)
Type: physicochemical
Conditions: for % M + 28 (ethyl ester imidazole impurity, HPLC area percentage) / % M − 28 (acid dihydroimidazole impurity, HPLC area percentage) / Δ % M + 28 (increase relative to time zero) / Δ % M − 28 (increase relative to time zero): closed vials, Molecular Sieve 4A dessicant
Description: Samples of the crystalline 4′-{2-ethoxy-4-ethyl-5-[((S)-2-mercapto-4-methylpentanoyl-amino)methyl]imidazol-1-ylmethyl}-3′-fluorobiphenyl-2-carboxylic acid, the micronized crystalline compound, and the slurried micronized crystalline compound, about 15 mg each, were stored in multiple closed vials at 40° C. (with 1 g Molecular Sieve 4A dessicant included). At specific intervals, the entire contents of representative vials were analyzed by the following HPLC method:
Column: Agilent Zorbox SB-C18, 4.6×250 mm, 5 μm (Part No. 880975-902). Mobile Phase A: 80% water, 20% MeCN, 0.01% TFA. Mobile Phase B: 20% water, 80% MeCN, 0.01% TFA. Flow rate: 1 mL/min. Injection Volume: 20 μL. Detector: 225 nm.
Samples were prepared as 0.2-0.3 mg/mL stock solutions in 40% MeOH and 60% MeCN in water, depending on the solubility, for injection onto the HPLC. The amount of 4′-{2-ethoxy-4-ethyl-5-[(2-mercapto-4-methylpentanoylamino)methyl]imidazol-1-ylmethyl}-3′-fluorobiphenyl-2-carboxylic acid ethyl ester (M+28) and 4′-{4-ethyl-5-[(2-mercapto-4-methylpentanoylamino)methyl]-2-oxo-2,3-dihydroimidazol-1-ylmethyl}-3′-fluorobiphenyl-2-carboxylic acid (M−28) present were determined by HPLC area percentage (% AUC or area/area %).

[1] = 2 weeks at 40° C., listed as Ex. 1
[2] = 4 weeks at 40° C., listed as Ex. 1
[3] = 2 weeks at 40° C., listed as Ex. 2
[4] = 4 weeks at 40° C., listed as Ex. 2
[5] = 2 weeks at 40° C., listed as Ex. 3
[6] = 2 weeks at 40° C., listed as stable micronized acid imidazole
[7] = 4 weeks at 40° C., listed as Ex. 3
[8] = 4 weeks at 40° C., listed as stable micronized acid imidazole

Q: For CCOc1nc(CC)c(CNC(=O)[C@@H](S)CC(C)C)n1Cc1ccc(-c2ccccc2C(=O)O)cc1F [Example 1, 4′-{2-Ethoxy-4-ethyl-5-[((S)-2-mercapto-4-methylpentanoylamino)methyl]imidazol-1-ylmethyl}-3′-fluorobiphenyl-2-carboxylic Acid], which “% M + 28 (ethyl ester imidazole impurity, HPLC area percentage)” value [1] is on record?
A: 0.05%

Q: What about the “% M − 28 (acid dihydroimidazole impurity, HPLC area percentage)” value [1] of the same compound?
A: 0.04%

Q: And the “Δ % M + 28 (increase relative to time zero)” value [1]?
A: 0.05%

Q: And the “Δ % M − 28 (increase relative to time zero)” value [1]?
A: −0.01%

Q: What about the “% M + 28 (ethyl ester imidazole impurity, HPLC area percentage)” value [2] of the same compound?
A: 0.05%

Q: What about the “% M − 28 (acid dihydroimidazole impurity, HPLC area percentage)” value [2] of the same compound?
A: 0.05%

Q: And the “Δ % M + 28 (increase relative to time zero)” value [2]?
A: 0.05%

Q: And the “Δ % M − 28 (increase relative to time zero)” value [2]?
A: 0%

Q: And the “% M + 28 (ethyl ester imidazole impurity, HPLC area percentage)” value (T = 0, 40° C., listed as Ex. 1)?
A: 0%

Q: What about the “% M − 28 (acid dihydroimidazole impurity, HPLC area percentage)” value (T = 0, 40° C., listed as Ex. 1) of the same compound?
A: 0.05%

Q: Which “Δ % M + 28 (increase relative to time zero)” value (2 weeks at 40° C.) does the source give for CCOc1nc(CC)c(CNC(=O)[C@@H](S)CC(C)C)n1Cc1ccc(-c2ccccc2C(=O)O)cc1F [Example 2, 4′-{2-ethoxy-4-ethyl-5-[((S)-2-mercapto-4-methylpentanoylamino)-methyl]imidazol-1-ylmethyl}-3′-fluorobiphenyl-2-carboxylic acid] here?
A: about 0.30%

Q: What about the “Δ % M − 28 (increase relative to time zero)” value (2 weeks at 40° C.) of the same compound?
A: about 0.38%

Q: What about the “% M + 28 (ethyl ester imidazole impurity, HPLC area percentage)” value [3] of the same compound?
A: 0.40%

Q: What about the “% M − 28 (acid dihydroimidazole impurity, HPLC area percentage)” value [3] of the same compound?
A: 0.47%

Q: And the “Δ % M + 28 (increase relative to time zero)” value [3]?
A: 0.30%

Q: And the “Δ % M − 28 (increase relative to time zero)” value [3]?
A: 0.38%

Q: And the “% M + 28 (ethyl ester imidazole impurity, HPLC area percentage)” value [4]?
A: 0.44%

Q: What about the “% M − 28 (acid dihydroimidazole impurity, HPLC area percentage)” value [4] of the same compound?
A: 0.61%

Q: What about the “Δ % M + 28 (increase relative to time zero)” value [4] of the same compound?
A: 0.34%

Q: And the “Δ % M − 28 (increase relative to time zero)” value [4]?
A: 0.52%

Q: And the “% M + 28 (ethyl ester imidazole impurity, HPLC area percentage)” value (T = 0, 40° C., listed as Ex. 2)?
A: 0.10%

Q: What about the “% M − 28 (acid dihydroimidazole impurity, HPLC area percentage)” value (T = 0, 40° C., listed as Ex. 2) of the same compound?
A: 0.09%

Q: With CCOc1nc(CC)c(CNC(=O)[C@@H](S)CC(C)C)n1Cc1ccc(-c2ccccc2C(=O)O)cc1F [Example 3, 4′-{2-ethoxy-4-ethyl-5-[((S)-2-mercapto-4-methylpentanoylamino)methyl]imidazol-1-ylmethyl}-3′-fluorobiphenyl-2-carboxylic acid] as the compound, how does the “Δ % M + 28 (increase relative to time zero)” value (2 weeks at 40° C.) read?
A: about 0.01%

Q: What about the “Δ % M − 28 (increase relative to time zero)” value (2 weeks at 40° C.) of the same compound?
A: about 0.05%

Q: And the “% M + 28 (ethyl ester imidazole impurity, HPLC area percentage)” value [5]?
A: 0.07%

Q: What about the “% M − 28 (acid dihydroimidazole impurity, HPLC area percentage)” value [5] of the same compound?
A: 0.20%

Q: What about the “Δ % M + 28 (increase relative to time zero)” value [5] of the same compound?
A: 0.01%

Q: What about the “Δ % M − 28 (increase relative to time zero)” value [5] of the same compound?
A: 0.05%

Q: What about the “Δ % M + 28 (increase relative to time zero)” value [6] of the same compound?
A: ≤ 0.1%

Q: What about the “Δ % M − 28 (increase relative to time zero)” value [6] of the same compound?
A: ≤ 0.1%

Q: What about the “Δ % M + 28 (increase relative to time zero)” value (4 weeks at 40° C.) of the same compound?
A: about 0.02%

Q: And the “Δ % M − 28 (increase relative to time zero)” value (4 weeks at 40° C.)?
A: about 0.09%

Q: What about the “% M + 28 (ethyl ester imidazole impurity, HPLC area percentage)” value [7] of the same compound?
A: 0.08%

Q: What about the “% M − 28 (acid dihydroimidazole impurity, HPLC area percentage)” value [7] of the same compound?
A: 0.24%

Q: What about the “Δ % M + 28 (increase relative to time zero)” value [7] of the same compound?
A: 0.02%

Q: And the “Δ % M − 28 (increase relative to time zero)” value [7]?
A: 0.09%

Q: What about the “Δ % M + 28 (increase relative to time zero)” value [8] of the same compound?
A: ≤ 0.1%

Q: What about the “Δ % M − 28 (increase relative to time zero)” value [8] of the same compound?
A: ≤ 0.1%

Q: And the “% M + 28 (ethyl ester imidazole impurity, HPLC area percentage)” value (T = 0, 40° C., listed as Ex. 3)?
A: 0.06%

Q: What about the “% M − 28 (acid dihydroimidazole impurity, HPLC area percentage)” value (T = 0, 40° C., listed as Ex. 3) of the same compound?
A: 0.15%

Q: And the “chemical degradation by HPLC after storage” value (about 40° C. for at least 2 weeks, with a desiccant such as molecular sieves)?
A: minimal chemical degradation
